Assays:
[1] = tested on: IPF patient derived fibroblasts; assay: Traction Force Microscopy of IPF patient derived fibroblasts; assay type: cell-based, human; conditions: IPF fibroblasts on 6.4 kPa matrices
Description: Traction Force Microscopy: Traction analysis was conducted as previously described. Briefly, polyacrylamide substrates with shear moduli of 6.4 kPa were prepared, and fluorescent sulfate-modified latex microspheres (0.2 μm, 505/515 ex/em) (FluoSpheres, Life Technologies) were conjugated to the gel surfaces after treatment with 1 mg ml^−1 of dopamine hydrochloride (Sigma-Aldrich) in 50 mM HEPES solution (pH 8.5). IPF patient derived fibroblasts were plated on the gels overnight and treated as indicated before traction force measurements. Images of gel surface-conjugated fluorescent beads were acquired for each cell before and after trypsinization using a Nikon ECLIPSE Ti microscope at ×10 magnification. Traction forces were estimated by measuring bead displacement fields and computing corresponding traction fields using TractionsForAll (freely distributed program that calculates 2-D tractions exerted by an adherent cell on its substrate).

[2] = tested on: IMR-90 cells and IPF Patient-Derived Lung fibroblasts; assay: Proliferation and apoptosis-factor expression of lung fibroblasts; assay type: cell-based, human
Description: IPF fibroblast and Normal lung fibroblast co-culture proliferation. Cell are pre-labelled with fluorescent dyes (red and green) and then co-cultured at a Ratio of 1:1 in 96 well plates. Cell counts are determined every 24 hours and plotted as a ratio of IPF/HLF cells. In the control wells the IPF cells outgrow and take over the well. N=2.
Proliferation of lung fibroblasts (IMR-90 cells and IPF Patient-Derived Lung fibroblasts) measured for 4 days in the presence of GPCR agonists ET-1 (100 nM) and LPA (10 μM) (32A, 32B) or growth factors TGFβ (2 ng/mL) and CTGF (100 ng/mL) (32C, 32D)+/−10M DHX. Cells were fixed and counted with DAPI at the end of each day. N=3 technical triplicates. RNA Expression of pro-apoptotic factor BIM (32E, 32F) and anti-apoptotic factor BCL2 (32G, 32H) was assessed following 24 treatment with DHX (10 μM). N=4.

[3] = tested on: bile duct ligation mediated hepatic fibrosis; assay: Bile Duct Ligation model of liver fibrosis; assay type: in vivo, mouse; conditions: BDL mice, DHX 5 mg/kg i.p. daily from Day 7 for 14 days
Description: Bile Duct Ligation: BDL was performed as previously described. Briefly, 8-10 weak old female C57BL/6N underwent either BDL or sham surgery. Mice were anesthetized on Day 0 following IACUC protocol, and the bile duct was ligated using sterile 3/0 silk ligatures. Sham surgery was performed by passing a silk ligature under the bile duct. Starting on Day 7, DHX (5 mg/kg) or vehicle control was administered everyday intraperitoneally (i.p.) for 14 days. Following the final DHX treatment, mice were sacrificed and the livers harvested for analysis of fibrosis.
Histological Scoring: Five μm thick sections were cut from Paraffin embedded lung tissues, and the sections were stained either with hematoxylin and eosin (H&E) or with Masson's Trichrome stain kit (Abcam). […] The severity of interstitial and peribronchiolar lung immature and mature fibrosis was estimated on a numerical scale according to Ashcroft et al. For scoring purposes, all H&E stained slides were systematically scanned at 100× magnification and successive 100× fields were scored. […] The predominant score for each field was recorded. The mean of all scores was calculated for each case. Liver trichrome stained sections were computationally measured using Image J software. […]
Hydroxyproline: Hydroxyproline content was measured using a hydroxyproline assay kit (Biovision) according to the manufacture's instruction with slight modification. […]

[4] = tested on: hepatic stellate cells (HSCs); assay: Western blot of αSMA and Fibronectin in TGFβ-stimulated hepatic stellate cells; assay type: cell-based, human; conditions: TGFβ 48 hours +/- DHX 10 μM
Description: FIGS. 10A-10D DHX reverses hepatic stellate cell activation and in vivo hepatic fibrosis. 10a. DRD1 is preferentially expressed in cultured human hepatic stellate cells (HSCs): ACTA2, PDGFRA positive, relative to cultured human hepatocytes (Heps): ALB positive. N=1. 10b. DHX inhibits TGFβ-mediated hepatic stellate cell activation in vitro. HSCs were stimulated with TGFβ for 48 hours+/−DHX (10 μM) prior to total protein isolation and western blot analysis of αSMA and Fibronectin. N=3 (***p<0.001, **p<0.01, *p<0.05 vs. Control+TGFβ). 10c. DHX reverses Bile duct ligation (BDL) mediated fibrosis in vivo measured by trichrome staining, and 10d. hydroxyproline. Sham Control N=5, BDL Control N=7, and BDL DHX N=8 (**p<0.01 vs. BDL Control).
Western Blotting: Cells were plated in EMEM containing 10% FBS overnight. Media was exchanged with EMEM containing 0.1% FBS for 24 hours. Prior to protein isolation cells were treated with the indicated concentration of compounds for the indicated time. Total protein was isolated using RIPA buffer (pH 8.0) containing Pierce Phosphatase Inhibitor (Thermo) and Halt Protease Inhibitor Cocktail (Thermo). Lysate total protein concentration was determined using Pierce BCA Protein Assay Kit (Thermo) and samples were run on a 10% polyacrylamide gel. […] Plates were imaged via a Li-Cor OdysseyXL system with quantification performed via densitometry.

Q: What does the source list for `Oc1cc2c(cc1O)[C@H]1c3ccccc3CN[C@@H]1CC2` (racemic) [Dihydrexidine, dihydrexidine]?
A: contractile forces (traction force microscopy) [1]: significantly and dose-dependently reduced the contractile forces; RNA expression of pro-apoptotic BIM and anti-apoptotic BCL2 ([2]; 24 treatment with DHX (10 μM)): primes lung fibroblasts for apoptosis; proliferation of lung fibroblasts ([2]; 4 days, with ET-1, LPA, TGFβ or CTGF +/−10M DHX): blocks proliferation; collagen deposition (hydroxyproline) [3]: trend toward reduced collagen deposition; histological fibrosis (trichrome) [3]: significantly improved histological fibrosis; TGFβ-mediated HSC expression of SMA and FN protein [4]: significant reversal of both
